Tests used:
[1] = system: Pyrenophora teres; test: Pyrenophora teres / barley / leaf disc preventative (net blotch); assay type: in vivo; conditions: foliar, barley leaf segments cv Hasso, inoculated two days after application, assessed 5-7 days after application, read-out: control of Pyrenophora teres (disease control compared to untreated)
Procedure: Pyrenophora Teres/Barley/Leaf Disc Preventative (Net Blotch): Barley leaf segments cv Hasso are placed on agar in a 24-well plate and sprayed with formulated test compound diluted in water at an application rate of 200 ppm. The leaf segments are inoculated with a spore suspension of the fungus two days after application of the test solution. The inoculated leaf segments are incubated at 20° C. and 65% relative humidity under a light regime of 12/12 h (light/dark) in a climate cabinet and the activity of a compound is assessed as disease control compared to untreated when an appropriate level of disease damage appears in untreated check leaf segments (5-7 days after application).

[2] = system: Puccinia recondita f. sp. tritici; test: Puccinia recondita f. sp. tritici / wheat / leaf disc curative (brown rust); assay type: in vivo; conditions: foliar, 200 ppm applied 1 day after inoculation, wheat leaf segments cv Kanzler, assessed 6-8 days after application, read-out: control of Puccinia recondita f. sp. tritici, curative (percent disease control compared to untreated)
Procedure: Puccinia Recondita f. Sp. Tritici/Wheat/Leaf Disc Curative (Brown Rust): Wheat leaf segments cv Kanzler were placed on agar in 24-well plates. The leaf segments were inoculated with a spore suspension of the fungus. The plates were stored in darkness at 19° C. and 75% relative humidity. The formulated test compound diluted in water was applied at an application rate of 200 ppm 1 day after inoculation.

[3] = system: Phaeosphaeria nodorum (Septoria nodorum); test: Phaeosphaeria nodorum (Septoria nodorum) / wheat / leaf disc preventative (glume blotch); assay type: in vivo; conditions: Parastagonospora nodorum, foliar, wheat leaf segments cv Kanzler, inoculated 2 days after application, assessed 5-7 days after application, read-out: control of Phaeosphaeria nodorum (percent disease control compared to untreated)
Procedure: Phaeosphaeria Nodorum (Septoria nodorum)/Wheat/Leaf Disc Preventative (Glume Blotch): Wheat leaf segments cv Kanzler were placed on agar in a 24-well plate and sprayed with formulated test compound diluted in water at an application rate of 200 ppm. The leaf disks are inoculated with a spore suspension of the fungus 2 days after application. The inoculated test leaf disks are incubated at 20° C. and 75% relative humidity under a light regime of 12/12 h (light/dark) in a climate cabinet and the activity of a compound is assessed as percent disease control compared to untreated when an appropriate level of disease damage appears in untreated check leaf disks (5-7 days after application).

[4] = system: Puccinia recondita f. sp. tritici; test: Puccinia recondita f. sp. tritici / wheat / leaf disc preventative (brown rust); assay type: in vivo; conditions: foliar, wheat leaf segments cv Kanzler, inoculated 1 day after application, assessed 7-9 days after application, read-out: control of Puccinia recondita f. sp. tritici, preventative (percent disease control compared to untreated)
Procedure: Puccinia Recondita f. Sp. Tritici/Wheat/Leaf Disc Preventative (Brown Rust): Wheat leaf segments cultivated variety (cv) Kanzler were placed on agar in 24-well plates and sprayed with formulated test compound diluted in water at an application rate of 200 ppm. The leaf disks were inoculated with a spore suspension of the fungus 1 day after application. The inoculated leaf segments were incubated at 19° C. and 75% relative humidity under a light regime of 12/12 h (light/dark) in a climate cabinet and the activity of a compound was assessed as percent disease control compared to untreated when an appropriate level of disease damage appears in untreated check leaf segments (7-9 days after application).

[5] = system: Botryotinia fuckeliana (Botrytis cinerea); test: Botryotinia fuckeliana (Botrytis cinerea) / liquid culture (gray mould); assay type: cell-based; conditions: Vogels broth, 24° C., 3-4 days after application, read-out: control of Botryotinia fuckeliana (inhibition of growth, photometrically)
Procedure: Botryotinia Fuckeliana (Botrytis cinerea)/Liquid Culture (Gray Mould): Conidia of the fungus from cryogenic storage were directly mixed into nutrient broth (Vogels broth). After placing a DMSO solution of test compound into a 96-well microtiter plate at an application rate 200 ppm, the nutrient broth containing the fungal spores was added. The test plates were incubated at 24° C. and the inhibition of growth was determined photometrically 3-4 days after application.

[6] = system: Thanatephorus cucumeris (Rhizoctonia solani); test: Thanatephorus cucumeris (Rhizoctonia solani) / liquid culture (foot rot, damping-off); assay type: cell-based; conditions: PDB potato dextrose broth, 24° C., 3-4 days after application, read-out: control of Thanatephorus cucumeris (inhibition of growth, photometrically)
Procedure: Thanatephorus Cucumeris (Rhizoctonia solani)/Liquid Culture (Foot Rot, Damping-Off): Mycelia fragments of a newly grown liquid culture of the fungus are directly mixed into nutrient broth (PDB potato dextrose broth). After placing a DMSO solution of the test compounds into a 96-well microtiter plate at an application rate 200 ppm, the nutrient broth containing the fungal material was added. The test plates were incubated at 24° C. and the inhibition of growth was determined photometrically 3-4 days after application.

[7] = system: Blumeria graminis f. sp. tritici (Erysiphe graminis f. sp. tritici); test: Blumeria graminis f. sp. tritici / wheat / leaf disc preventative (powdery mildew on wheat); assay type: in vivo; conditions: foliar, wheat leaf segments cv. Kanzler, inoculated 1 day after application, assessed 6-8 days after application, read-out: control of Blumeria graminis (percent disease control compared to untreated)
Procedure: Blumeria Graminis f. Sp. Tritici (Erysiphe Graminis f. Sp. Tritici)/Wheat/Leaf Disc Preventative (Powdery Mildew on Wheat):
Wheat leaf segments cv. Kanzler were placed on agar in a 24-well plate and sprayed with the formulated test compound diluted in water at an application rate of 200 ppm. The leaf disks were inoculated by shaking powdery mildew infected plants above the test plates 1 day after application. The inoculated leaf disks were incubated at 20° C. and 60% relative humidity under a light regime of 24 h darkness followed by 12 h/12 h (dark/light) in a climate chamber and the activity of a compound was assessed as percent disease control compared to untreated when an appropriate level of disease damage appears on untreated check leaf segments (6-8 days after application). The following compounds gave at least 80% control of Blumeria graminis: […]

[8] = system: Pythium ultimum; test: Pythium ultimum / liquid culture (seedling damping off); assay type: cell-based; conditions: Globisporangium ultimum, PDB potato dextrose broth, 24° C., 2-3 days after application, read-out: control of Pythium ultimum (inhibition of growth, photometrically)
Procedure: Pythium Ultimum/Liquid Culture (Seedling Damping Off): Mycelia fragments and oospores of a newly grown liquid culture of the fungus were directly mixed into nutrient broth (PDB potato dextrose broth). After placing a DMSO solution of test compound into a 96 well microtiter plate at an application rate 200 ppm, the nutrient broth containing the fungal mycelia/spore mixture was added. The test plates were incubated at 24° C. and the inhibition of growth was determined photometrically 2-3 days after application.

[9] = system: Phytophthora infestans; test: whole plant or invertebrate; assay type: in vivo; conditions: in Solanum lycopersicum, foliar, read-out: control of Phytophthora infestans (percent disease control compared to untreated)
[10] = system: Magnaporthe grisea (Pyricularia oryzae); test: whole plant or invertebrate; assay type: in vivo; conditions: foliar, read-out: control of Magnaporthe grisea (percent disease control compared to untreated)

Cc1ccc2c(n1)/C(=N/OCC(O)CO/N=C1\CCCc3ccc(C)nc31)CCC2 (centres unmarked) [P.11]
≥ 80%: pest or weed control at 200 ppm [1] | pest or weed control at 200 ppm [2] | pest or weed control at 200 ppm [3] | pest or weed control at 200 ppm [4]

Cc1cc(Cl)c2c(n1)/C(=N/OCC1(CO/N=C3\CCCc4c(Cl)cc(C)nc43)CC1)CCC2 [P.12]
≥ 80%: inhibition at 200 ppm [5] | inhibition at 200 ppm [6]

Cc1ccc2c(n1)/C(=N/OCC(Cl)CO/N=C1\CCCc3ccc(C)nc31)CCC2 (centres unmarked) [P.24]
≥ 80%: inhibition at 200 ppm [5] | pest or weed control at 200 ppm [1] | pest or weed control at 200 ppm [2] | pest or weed control at 200 ppm [7] | pest or weed control at 200 ppm [3] | pest or weed control at 200 ppm [4] | inhibition at 200 ppm [8]

Cc1ccc2c(n1)/C(=N/OCC(CO/N=C1\CCCc3ccc(C)nc31)c1ccccc1)CCC2 (centres unmarked) [P.04]
≥ 80%: inhibition at 200 ppm [5] | pest or weed control at 200 ppm [9] | pest or weed control at 200 ppm [1] | pest or weed control at 200 ppm [2] | pest or weed control at 200 ppm [7] | pest or weed control at 200 ppm [3] | pest or weed control at 200 ppm [4]

Cc1c2c(nc3ccccc13)/C(=N/OCCCO/N=C1\CCCc3c1nc1ccccc1c3C)CCC2 [P.25]
≥ 80%: inhibition at 200 ppm [5] | pest or weed control at 200 ppm [1] | pest or weed control at 200 ppm [7] | pest or weed control at 200 ppm [3] | pest or weed control at 200 ppm [4]

Cc1cc(CF)c2c(n1)/C(=N/OCCCO/N=C1\CCCc3c(CF)cc(C)nc31)CCC2 [P.48]
≥ 80%: inhibition at 200 ppm [5] | pest or weed control at 200 ppm [1] | pest or weed control at 200 ppm [2] | pest or weed control at 200 ppm [10] | pest or weed control at 200 ppm [7] | pest or weed control at 200 ppm [3] | pest or weed control at 200 ppm [4] | inhibition at 200 ppm [8]

Cc1c2c(nc3ccccc13)/C(=N/OCC(C)(C)CO/N=C1\CCCc3c1nc1ccccc1c3C)CCC2 [P.28]
≥ 80%: inhibition at 200 ppm [5] | pest or weed control at 200 ppm [1] | pest or weed control at 200 ppm [7] | pest or weed control at 200 ppm [3]

Cc1ccc2c(n1)/C(=N/OCC(F)CO/N=C1\CCCc3ccc(C)nc31)CCC2 (centres unmarked) [P.14]
≥ 80%: inhibition at 200 ppm [5] | pest or weed control at 200 ppm [2] | pest or weed control at 200 ppm [7] | pest or weed control at 200 ppm [3] | pest or weed control at 200 ppm [4] | inhibition at 200 ppm [8]

Cc1ccc2c(n1)/C(=N/OCC(C)(C)CO/N=C1\CCCc3c(N4CCCC4)cc(C)nc31)CCC2 [P.41]
≥ 80%: inhibition at 200 ppm [5] | pest or weed control at 200 ppm [1] | inhibition at 200 ppm [6] | pest or weed control at 200 ppm [7] | pest or weed control at 200 ppm [3]

Cc1c2c(nc3ccccc13)/C(=N/OCC1(CO/N=C3\CCCc4c3nc3ccccc3c4C)CC1)CCC2 [P.27]
≥ 80%: inhibition at 200 ppm [5] | pest or weed control at 200 ppm [1] | pest or weed control at 200 ppm [7] | pest or weed control at 200 ppm [3]

Cc1cc(CF)nc2c1CCC/C2=N\OCC(C)(C)CO/N=C1\CCCc2c(C)cc(CF)nc21 [P.34]
≥ 80%: inhibition at 200 ppm [5] | pest or weed control at 200 ppm [1] | pest or weed control at 200 ppm [2] | pest or weed control at 200 ppm [10] | pest or weed control at 200 ppm [3]

Cc1ccc2c(n1)/C(=N/OCC(C)(C)CO/N=C1\CC(C)Cc3ccc(-c4ccc(Cl)cc4)nc31)CCC2 (centres unmarked) [P.22]
≥ 80%: inhibition at 200 ppm [5] | pest or weed control at 200 ppm [3]

Cc1ccc2c(n1)/C(=N/OCC(C)(C)CO/N=C1\CCc3ccc(Cl)nc31)CCC2 [P.01]
≥ 80%: inhibition at 200 ppm [5]

Cc1ccc2c(n1)/C(=N/OCCCO/N=C1\CCCc3ccc(C(F)(F)F)nc31)CCC2 [P.47]
≥ 80%: inhibition at 200 ppm [5] | pest or weed control at 200 ppm [1] | pest or weed control at 200 ppm [2] | pest or weed control at 200 ppm [7] | pest or weed control at 200 ppm [3] | pest or weed control at 200 ppm [4]

CC(C)(CO/N=C1\CCCc2cc3c(nc21)CCCC3)CO/N=C1\CCCc2cc3c(nc21)CCCC3 [P.50]
≥ 80%: inhibition at 200 ppm [5] | pest or weed control at 200 ppm [1] | inhibition at 200 ppm [6] | pest or weed control at 200 ppm [7] | pest or weed control at 200 ppm [3]

Cc1ccc2c(n1)/C(=N/OCC(C)(C)CO/N=C1\CCc3ccc(C)nc31)CCC2 [P.08]
≥ 80%: inhibition at 200 ppm [5] | pest or weed control at 200 ppm [7]

COc1ccc2c(n1)/C(=N/OCC1(CO/N=C3\CCCc4ccc(OC)nc43)CC1)CCC2 [P.13]
≥ 80%: inhibition at 200 ppm [5] | pest or weed control at 200 ppm [1] | pest or weed control at 200 ppm [2] | inhibition at 200 ppm [6] | pest or weed control at 200 ppm [7] | pest or weed control at 200 ppm [3] | pest or weed control at 200 ppm [4]

CSc1cc(C)nc2c1CCC/C2=N\OCCCO/N=C1\CCCc2c(SC)cc(C)nc21 [P.43]
≥ 80%: inhibition at 200 ppm [5]

Cc1ccc2c(n1)/C(=N/OCC1(CO/N=C3\CCCc4ccc(C)nc43)CC1)CCC2 [P.03]
≥ 80%: inhibition at 200 ppm [5] | pest or weed control at 200 ppm [1] | pest or weed control at 200 ppm [2] | pest or weed control at 200 ppm [7] | pest or weed control at 200 ppm [3] | pest or weed control at 200 ppm [4] | inhibition at 200 ppm [8]

COCc1cc(C)c2c(n1)/C(=N/OCC(C)(C)CO/N=C1\CCCc3ccc(C)nc31)CCC2 [P.42]
≥ 80%: inhibition at 200 ppm [5] | pest or weed control at 200 ppm [1] | pest or weed control at 200 ppm [2] | pest or weed control at 200 ppm [10] | pest or weed control at 200 ppm [7] | pest or weed control at 200 ppm [3] | pest or weed control at 200 ppm [4] | inhibition at 200 ppm [8]

Cc1cc(C(F)F)c2c(n1)/C(=N/OCC1(CO/N=C3\CCCc4c(C(F)F)cc(C)nc43)CC1)CCC2 [P.45]
≥ 80%: inhibition at 200 ppm [5] | pest or weed control at 200 ppm [1] | pest or weed control at 200 ppm [2] | pest or weed control at 200 ppm [10] | pest or weed control at 200 ppm [7] | pest or weed control at 200 ppm [3] | pest or weed control at 200 ppm [4]

FCc1ccnc2c1CCC/C2=N\OCCCO/N=C1\CCCc2c(CF)ccnc21 [P.36]
≥ 80%: inhibition at 200 ppm [5]
